This assay concerns the target JAK1 (Homo sapiens (Human), UniProt P23458). In words: Cellular JAK1 assay: IL-6-mediated STAT3 phosphorylation in TF-1 cells. The class given is cell-based. To be noted: IL-6 stimulation, STAT3 phosphorylation at Tyr705 (AlphaLISA), read-out: Inhibitory Activity Against JAK1 IC50. As to the method: The cellular potency of a compound on JAK1 or JAK2 inhibition is determined by measuring the cytokine-mediated phosphorylation of STAT proteins in TF-1 cells.
Human cytokines of IL-6 (R&D Systems, Cat. No. 206-IL-010/CF) and GM-CSF (R&D Systems, Cat. No. 215-GM-010/CF) are reconstituted at 10 μg/mL in D-PBS containing 0.1% BSA (Sigma, Cat. No. A8577) and human EPO (R&D Systems, Cat. No. 287-TC-500) at 500 U/mL in D-PBS containing 0.1% BSA. TF-1 cells (ATCC, CRL-2003) were grown in RPMI1640 (ATCC, Cat. No. 30-2001) supplemented with 2 ng/mL of recombinant human GM-CSF, 10% FBS (Gibco, Cat. No. 10437-028), and 100 U/mL penicillin-streptomycin (Gibco, Cat. No. 15140-122). The cells were maintained and propagated between 1×10^5 cells/mL to 7.5×10^5 cells/mL. Aliquots of the cells from early passages were preserved for liquid nitrogen storage. Frozen vials of the cells were thawed at 37° C. water bath. The cells were spun to remove freezing medium. The newly revived frozen cells were adapted in culture for 5-7 days before used for compound testing. The cells used in for compound testing were less than 20 subculture passages or 3 months in culture.
To test compounds, the TF-1 cells were harvested at a density of 3 to 7×10^5 cells/mL by centrifugation. After removing the culture medium, the resulting cell pellet was suspended and washed once by centrifugation with HBSS buffer (Gibco, Cat. No. 14025-092) containing 0.1% BSA. The cell pellet was resuspended in HBSS buffer at 7.5×10^6 cells/mL. Four micro-liters of the cells (3×10^4 cells in total) were added to each well of a white 384-well plate (Packard, Cat. No. 6005214).
The compounds were first diluted in dimethylsulfoxide (DMSO) (Sigma, Cat. No. D2650) to generate 9 3-fold diluted dosing concentrations in a 96-well polypropylene plate (Corning, Cat. No. 3365), followed by addition of HBSS buffer for another 125-fold dilution. To the cells, 2 μL of the diluted compounds were added and mixed by tapping the plate several times. The cells were incubated for 2 hrs of treatment. DMSO was used as a control and similarly diluted along and added to the cells.
To assay JAK1 inhibition, 2 μL of IL-6 diluted at 400 ng/mL (4×) in HBSS containing 0.1% BSA was added to the treated cells. The cells were then incubated for 30 min of cytokine treatment and lysed at the end by addition of 2 μL of 5×AlphaLISA SureFire Ultra lysis buffer from Perkin Elmer. The plate was agitated on a plate shaker for 10 min at room temperature. The cellular JAK1 activity was determined by measuring STAT3 phosphorylation at Tyr705 in lysates using the AlphaLISA SureFire Ultra kit (Perkin Elmer, Cat. No. ALSU-PST3-A500). A volume of 5 μL of acceptor mix and donor mix was added sequentially to lysates following the product protocol. The assay signals were recorded on EnVision plate reader (Perkin Elmer) with AlphaScreen optics setting.
The results are summarized in Table 3, where A represents a value no greater than 500 nM, B represents a value greater than 500 nM but no greater than 1 μM, C represents a value greater than 1 μM but no greater than 5 μM, and D represents a value greater than 5 μM.

Sequence of JAK1 (P23458 whole entry): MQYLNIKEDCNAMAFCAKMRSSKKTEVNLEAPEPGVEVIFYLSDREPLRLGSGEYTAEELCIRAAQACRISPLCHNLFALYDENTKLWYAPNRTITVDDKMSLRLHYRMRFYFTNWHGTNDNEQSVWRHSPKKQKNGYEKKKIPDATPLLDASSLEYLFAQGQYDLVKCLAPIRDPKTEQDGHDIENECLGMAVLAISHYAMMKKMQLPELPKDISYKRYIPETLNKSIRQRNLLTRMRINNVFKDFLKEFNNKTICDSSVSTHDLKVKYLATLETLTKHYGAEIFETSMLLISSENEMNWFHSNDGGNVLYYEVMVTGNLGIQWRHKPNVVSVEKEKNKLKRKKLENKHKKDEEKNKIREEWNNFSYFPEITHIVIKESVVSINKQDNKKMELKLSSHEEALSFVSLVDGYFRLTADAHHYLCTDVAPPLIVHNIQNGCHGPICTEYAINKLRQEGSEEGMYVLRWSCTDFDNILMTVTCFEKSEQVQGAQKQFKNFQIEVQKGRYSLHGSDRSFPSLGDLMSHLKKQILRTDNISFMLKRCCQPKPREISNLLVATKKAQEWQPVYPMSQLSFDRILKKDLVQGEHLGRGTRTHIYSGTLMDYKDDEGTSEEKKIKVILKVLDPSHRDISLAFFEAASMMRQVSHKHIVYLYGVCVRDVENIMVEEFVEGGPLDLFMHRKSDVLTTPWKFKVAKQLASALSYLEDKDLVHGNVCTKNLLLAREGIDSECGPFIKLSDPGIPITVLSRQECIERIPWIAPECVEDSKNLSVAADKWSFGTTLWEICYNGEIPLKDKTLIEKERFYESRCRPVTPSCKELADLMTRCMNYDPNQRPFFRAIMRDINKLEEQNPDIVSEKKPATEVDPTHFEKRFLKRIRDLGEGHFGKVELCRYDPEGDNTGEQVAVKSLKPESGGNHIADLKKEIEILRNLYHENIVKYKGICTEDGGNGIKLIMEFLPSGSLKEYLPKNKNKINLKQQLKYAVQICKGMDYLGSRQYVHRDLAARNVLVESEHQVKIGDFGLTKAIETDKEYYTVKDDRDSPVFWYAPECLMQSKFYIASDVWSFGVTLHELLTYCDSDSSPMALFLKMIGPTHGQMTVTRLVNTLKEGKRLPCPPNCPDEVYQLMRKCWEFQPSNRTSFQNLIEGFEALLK

Turning to `O=C(Nc1cn2c(-c3ccc(CN4CCS(=O)(=O)CC4)cc3F)cccc2n1)C1CC1` [Compound 14], the IC50 is no more than 500 nM.

These data come from patent US10730875B2, “Substituted imidazo[1,2-A]pyridin-2-ylamine compounds, and pharmaceutical compositions and methods of use thereof” (JN Therapeutics, priority 2015, dated 2020).
